From publication PMC10304650 (Journal of medicinal chemistry, 2023)

Legend:
[1] = test system: phosphorylation of 4E-BP1 in T24 cells; assay: Phosphorylation of 4E-BP1 by western blot; type: cell-based, human; details: 1 μM, 24h
[2] = test system: other CK1 isoforms; assay: Specificity among CK1 isoforms; type: biochemical
[3] = test system: bladder cancer cell lines; assay: Cell proliferation, CellTiter-Glo, 72 hours; type: cell-based, human; details: three bladder cancer cell lines
[4] = molecular target: 97 kinases; assay: KINOMEscan profiling; type: binding; details: 97 kinases examined

SMILES | Inhibition of phosphorylation of T37/46, S65 and T70 of 4E-BP1 [1] | Inhibition of other CK1 isoforms [2] | Antiproliferative potency, EC50 [3] | KINOMEscan binding affinity [4]
Fc1ccc2[nH]c(CNc3nc(N4CCOCC4)nc4c3ncn4-c3ccc4ccccc4c3)nc2c1F [SR-4133, N-((4,5-difluoro-1H-benzo[d]imidazol-2-yl)methyl)-2-morpholino-9-(naphthalen-2-yl)-9Hpurin-6-amine] | blocks the phosphorylation | do not inhibit | high nanomolar | weak binding affinity only to CK1δ, PDGFRB, and TRKA
COc1ccc(-n2cnc3c(NCc4nc5c(F)c(F)ccc5[nH]4)nc(N4CCOCC4)nc32)cc1 [SR-4310, N-((6,7-difluoro-1H-benzo[d]imidazol-2-yl)methyl)-9-(4-methoxyphenyl)-2-morpholino-9H-purin-6-amine] | – | do not inhibit | nanomolar | –
